Structures can show the parent of a compound that is named as a salt.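 Compound exposure: 48 hours, 5 concentrations, 96-well plates. At the GI50, growth is halved.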 Active and inactive are the calls of the source. Rule as the data show it: active = GI50 up to about 1.1 µM and inactive = higher. Where a SMILES comes first, the peptide text is derived from it. The star is where a group is joined. Boc = CC(C)(C)OC(=O)*; Bn = c1ccc(C*)cc1
Experiments:
Assay in all cases: DTP human tumour cell line panel, 48 h
A549 = tested on: A549
UO-31 = tested on: UO-31
HOP-62 = tested on: HOP-62
SK-MEL-2 = tested on: SK-MEL-2
KM12 = tested on: KM12
NCI-H460 = tested on: NCI-H460
MOLT-4 = tested on: MOLT-4
OVCAR-3 = tested on: OVCAR-3
CCRF-CEM = tested on: CCRF-CEM
OVCAR-5 = tested on: OVCAR-5
RPMI-8226 = tested on: RPMI-8226
ACHN = tested on: ACHN
DU-145 = tested on: DU-145
Hs-578T = tested on: Hs-578T
TK-10 = tested on: TK-10
SF-268 = tested on: SF-268
T47D = tested on: T47D
EKVX = tested on: EKVX
UACC-257 = tested on: UACC-257
NCI-H226 = tested on: NCI-H226

Row | Compound | GI50 (A549) | GI50 (UO-31) | GI50 (HOP-62) | GI50 (SK-MEL-2) | GI50 (KM12) | GI50 (NCI-H460) | GI50 (MOLT-4) | GI50 (OVCAR-3) | GI50 (CCRF-CEM) | GI50 (OVCAR-5) | GI50 (RPMI-8226) | GI50 (ACHN) | GI50 (DU-145) | GI50 (Hs-578T) | GI50 (TK-10) | GI50 (SF-268) | GI50 (T47D) | GI50 (EKVX) | GI50 (UACC-257) | GI50 (NCI-H226)
1 | Cn1c(N/N=C/c2ccc(Cl)cc2)nc(-c2ccc(Cl)cc2)c(C#N)c1=O | 17.8 µM (inactive) | 16 µM (inactive) | 12 µM (inactive) | 10.5 µM (inactive) | 22.6 µM (inactive) | 27 µM (inactive) | 44.7 µM (inactive) | 16.4 µM (inactive) | 25.4 µM (inactive) | 23.8 µM (inactive) | 33.3 µM (inactive) | 61.5 µM (inactive) | 22.5 µM (inactive) | 30.3 µM (inactive) | 29 µM (inactive) | 35.4 µM (inactive) | > 100 µM (inactive) | 25.6 µM (inactive) | 72.3 µM (inactive) | –
2 | O=C(Nn1c(-c2ccccc2)nc2ccccc2c1=O)c1ccc(Cl)cc1 | 67.9 µM (inactive) | 65.6 µM (inactive) | > 100 µM (inactive) | – | > 100 µM (inactive) | 59.6 µM (inactive) | 59.6 µM (inactive) | 91.6 µM (inactive) | > 100 µM (inactive) | > 100 µM (inactive) | 76 µM (inactive) | 94.2 µM (inactive) | > 100 µM (inactive) | 34 µM (inactive) | 86.3 µM (inactive) | > 100 µM (inactive) | 85.5 µM (inactive) | > 100 µM (inactive) | > 100 µM (inactive) | > 100 µM (inactive)
3 | N=c1ccn2c(n1)O[C@H]1[C@H](O)[C@@H](CO)O[C@H]12 [ANCITABINE HYDROCHLORIDE] | 0.198 µM (active) | – | 0.292 µM (active) | 411 µM (inactive) | – | 0.154 µM (active) | 0.207 µM (active) | – | – | 24.7 µM (inactive) | 141 µM (inactive) | 0.291 µM (active) | – | > 1000 µM (inactive) | > 1000 µM (inactive) | 7.05 µM (inactive) | 213 µM (inactive) | 62.1 µM (inactive) | 78.7 µM (inactive) | –
4 | CC12CCC3c4cc(Br)c(O)c(Br)c4CCC3C1CCC2O (stereo unspecified) | 19.5 µM (inactive) | 15.8 µM (inactive) | – | 19.1 µM (inactive) | 12.9 µM (inactive) | – | 17.7 µM (inactive) | 18.9 µM (inactive) | 24.3 µM (inactive) | 25.7 µM (inactive) | – | 22.5 µM (inactive) | 34.9 µM (inactive) | 17.9 µM (inactive) | 19.8 µM (inactive) | 19.8 µM (inactive) | 26.2 µM (inactive) | 15.2 µM (inactive) | 17.8 µM (inactive) | 16.7 µM (inactive)
5 | COC(=O)C(CC(C)C)NC(=O)CNC(=O)C(Cc1ccc(OCc2ccccc2)cc1)NC(=O)C(COCc1ccccc1)NC(=O)OC(C)(C)C (stereo unspecified) (Boc-S(Bn)Y(Bn)GL-OMe; configuration not given here) | > 100 µM (inactive) | > 100 µM (inactive) | > 100 µM (inactive) | – | > 100 µM (inactive) | > 100 µM (inactive) | > 100 µM (inactive) | > 100 µM (inactive) | – | > 100 µM (inactive) | 9.51 µM (inactive) | > 100 µM (inactive) | > 100 µM (inactive) | > 100 µM (inactive) | > 100 µM (inactive) | > 100 µM (inactive) | > 100 µM (inactive) | > 100 µM (inactive) | – | > 100 µM (inactive)
6 | Cc1ncc([N+](=O)[O-])n1CCNC(=O)CCCCn1ccnc1[N+](=O)[O-] | > 100 µM (inactive) | > 100 µM (inactive) | > 100 µM (inactive) | > 100 µM (inactive) | > 100 µM (inactive) | > 100 µM (inactive) | > 100 µM (inactive) | > 100 µM (inactive) | > 100 µM (inactive) | > 100 µM (inactive) | – | > 100 µM (inactive) | > 10 µM (inactive) | > 100 µM (inactive) | – | > 100 µM (inactive) | > 100 µM (inactive) | – | > 100 µM (inactive) | > 100 µM (inactive)
7 | O=c1[nH]/c(=C/c2ccc(OCc3ccccc3)cn2)c(=O)[nH]/c1=C/c1ccccc1 | 0.594 µM (active) | – | 0.239 µM (active) | – | 0.118 µM (active) | 0.132 µM (active) | 0.327 µM (active) | 0.114 µM (active) | 0.126 µM (active) | 1.07 µM (active) | 0.123 µM (active) | 0.296 µM (active) | 0.128 µM (active) | 0.185 µM (active) | 0.164 µM (active) | 0.206 µM (active) | > 24.7 µM (inactive) | 0.138 µM (active) | – | –
8 | O=C(O)c1nc2cc(C(F)(F)F)ccc2nc1Nc1ccc(F)cc1 | 11.2 µM (inactive) | 15.8 µM (inactive) | – | 7.16 µM (inactive) | 6.64 µM (inactive) | – | 13.6 µM (inactive) | 15.8 µM (inactive) | 12.6 µM (inactive) | 35.1 µM (inactive) | 4.17 µM (inactive) | 12.3 µM (inactive) | – | 19.6 µM (inactive) | 20 µM (inactive) | 22.3 µM (inactive) | 20.2 µM (inactive) | 21.9 µM (inactive) | 20.6 µM (inactive) | 27 µM (inactive)
9 | COc1c(O)c2c(c3cc(C(=O)N4CCc5c4c(O)c(OC)c4[nH]c(C(=O)N6CC7CC78C6=CC(=O)c6[nH]cc(C)c68)cc54)[nH]c13)CCN2C(N)=O (stereo unspecified) [CC-1065] | 0.000232 µM (active) | 0.00834 µM (active) | – | – | 0.003 µM (active) | 0.000175 µM (active) | 0.0164 µM (active) | 0.0197 µM (active) | 0.00507 µM (active) | – | 0.027 µM (active) | 0.00298 µM (active) | 0.284 µM (active) | 0.294 µM (active) | 0.0266 µM (active) | 0.00259 µM (active) | 0.356 µM (active) | 0.867 µM (active) | 0.00352 µM (active) | 0.000212 µM (active)
10 | CCOC(=O)CCCn1cc(C(=O)OC)nn1 | > 100 µM (inactive) | > 100 µM (inactive) | > 100 µM (inactive) | > 100 µM (inactive) | > 100 µM (inactive) | > 100 µM (inactive) | > 100 µM (inactive) | – | > 100 µM (inactive) | – | – | > 100 µM (inactive) | > 100 µM (inactive) | > 100 µM (inactive) | > 100 µM (inactive) | > 100 µM (inactive) | > 100 µM (inactive) | > 100 µM (inactive) | > 100 µM (inactive) | > 100 µM (inactive)
11 | CCCCCc1c2nc(c(CCCCC)c3ccc([nH]3)c(CCCCC)c3nc(c(CCCCC)c4ccc1[nH]4)C=C3)C=C2 | > 100 µM (inactive) | > 100 µM (inactive) | > 100 µM (inactive) | > 100 µM (inactive) | > 100 µM (inactive) | > 100 µM (inactive) | > 100 µM (inactive) | > 100 µM (inactive) | > 100 µM (inactive) | > 100 µM (inactive) | > 100 µM (inactive) | > 100 µM (inactive) | > 100 µM (inactive) | > 100 µM (inactive) | > 100 µM (inactive) | > 100 µM (inactive) | > 100 µM (inactive) | > 100 µM (inactive) | > 100 µM (inactive) | –
12 | OCCOCn1cc(Cn2ncc3c(SCc4ccccc4)ncnc32)nn1 | 40.3 µM (inactive) | 61.8 µM (inactive) | 48.1 µM (inactive) | 37.2 µM (inactive) | 32.3 µM (inactive) | 38.3 µM (inactive) | 14.4 µM (inactive) | 44.8 µM (inactive) | – | 79.3 µM (inactive) | – | 99.3 µM (inactive) | 43.7 µM (inactive) | 39.8 µM (inactive) | > 100 µM (inactive) | 75.5 µM (inactive) | 27.5 µM (inactive) | 38 µM (inactive) | 53.7 µM (inactive) | 62.8 µM (inactive)
13 | COC(=O)C(=O)C(C(=O)C(=O)Nc1nnc(S)[nH]1)c1nc2ccc([N+](=O)[O-])cc2nc1O (stereo unspecified) | > 100 µM (inactive) | 82.8 µM (inactive) | > 100 µM (inactive) | > 100 µM (inactive) | > 100 µM (inactive) | > 100 µM (inactive) | – | > 100 µM (inactive) | > 100 µM (inactive) | > 100 µM (inactive) | > 100 µM (inactive) | 86.9 µM (inactive) | – | > 100 µM (inactive) | > 100 µM (inactive) | > 100 µM (inactive) | > 100 µM (inactive) | > 100 µM (inactive) | > 100 µM (inactive) | > 100 µM (inactive)
14 | S=C1CC(c2ccc(Cl)cc2)Sc2ccccc2N1 (stereo unspecified) | 55.5 µM (inactive) | > 100 µM (inactive) | 16.4 µM (inactive) | – | 45.7 µM (inactive) | 60 µM (inactive) | > 10 µM (inactive) | 23.1 µM (inactive) | 51.9 µM (inactive) | > 100 µM (inactive) | 24.3 µM (inactive) | 71.8 µM (inactive) | 51.4 µM (inactive) | 11.9 µM (inactive) | 46.7 µM (inactive) | 24.7 µM (inactive) | 40.4 µM (inactive) | 34 µM (inactive) | > 100 µM (inactive) | 50.5 µM (inactive)
15 | CC(=O)NC1=C(NCCCl)C(=O)c2ccccc2C1=O | 35.4 µM (inactive) | – | 64 µM (inactive) | – | 31.8 µM (inactive) | 32.1 µM (inactive) | 25.1 µM (inactive) | 49.5 µM (inactive) | 19.1 µM (inactive) | 81.8 µM (inactive) | 40.9 µM (inactive) | 42.8 µM (inactive) | 30.5 µM (inactive) | 43.5 µM (inactive) | – | 59.8 µM (inactive) | 25.1 µM (inactive) | > 100 µM (inactive) | 15 µM (inactive) | 49.1 µM (inactive)
